Laboratory results as given in PMC12670405, “Second-Generation AURKA-Targeting PROTACs: Structural Optimization toward in Vivo Degradation in Neuroblastoma” (Journal of Medicinal Chemistry, 2025).

Experiments:
Experiment in all cases: KINOMEscan scanMAX
Assay type in all cases: binding
Conditions in all cases: read-out: Percent Control
[1] = target: T1, ABL1(F317I)-nonphosphorylated (Homo sapiens, UniProt P00519, F317I)
T1 construct: purchased Eurofins Discovery (DiscoverX KINOMEscan scanMAX)
Protocol: (§1) The kinome-wide binding assay was performed by Eurofins Discovery using the scanMAX screening platform. More information can be found on the Eurofins Discovery Web site.

[2] = target: T2, ABL1(T315I)-nonphosphorylated (Homo sapiens, UniProt P00519, T315I)
T2 construct: purchased Eurofins Discovery (DiscoverX KINOMEscan scanMAX)
Protocol: as §1

ALK = target: T3, ALK (Homo sapiens, UniProt Q9UM73)
T3 construct: purchased Eurofins Discovery (DiscoverX KINOMEscan scanMAX)
Protocol: as §1

BRSK1 = target: T4, BRSK1 (Homo sapiens, UniProt Q8TDC3)
T4 construct: purchased Eurofins Discovery (DiscoverX KINOMEscan scanMAX)
Protocol: as §1

CAMK2D = target: T5, CAMK2D (Homo sapiens, UniProt Q13557)
T5 construct: purchased Eurofins Discovery (DiscoverX KINOMEscan scanMAX)
Protocol: as §1

CDK4 = target: T6, CDK4 (Homo sapiens, UniProt P11802)
T6 construct: purchased Eurofins Discovery (DiscoverX KINOMEscan scanMAX)
Protocol: as §1

CDK4-cyclinD1 = target: T7, CDK4-cyclinD1 (Homo sapiens, UniProt P11802)
T7 construct: purchased Eurofins Discovery (DiscoverX KINOMEscan scanMAX)
Protocol: as §1

CSNK1D = target: T8, CSNK1D (Homo sapiens, UniProt P48730)
T8 construct: purchased Eurofins Discovery (DiscoverX KINOMEscan scanMAX)
Protocol: as §1

CSNK2A2 = target: T9, CSNK2A2 (Homo sapiens, UniProt P19784)
T9 construct: purchased Eurofins Discovery (DiscoverX KINOMEscan scanMAX)
Protocol: as §1

DYRK2 = target: T10, DYRK2 (Homo sapiens, UniProt Q92630)
T10 construct: purchased Eurofins Discovery (DiscoverX KINOMEscan scanMAX)
Protocol: as §1

EPHA5 = target: T11, EPHA5 (Homo sapiens, UniProt P54756)
T11 construct: purchased Eurofins Discovery (DiscoverX KINOMEscan scanMAX)
Protocol: as §1

ERBB3 = target: T12, ERBB3 (Homo sapiens, UniProt P21860)
T12 construct: purchased Eurofins Discovery (DiscoverX KINOMEscan scanMAX)
Protocol: as §1

FGFR4 = target: T13, FGFR4 (Homo sapiens, UniProt P22455)
T13 construct: purchased Eurofins Discovery (DiscoverX KINOMEscan scanMAX)
Protocol: as §1

FLT3(D835V) = target: T14, FLT3(D835V) (Homo sapiens, UniProt P36888, D835V)
T14 construct: purchased Eurofins Discovery (DiscoverX KINOMEscan scanMAX)
Protocol: as §1

FRK = target: T15, FRK (Homo sapiens, UniProt P42685)
T15 construct: purchased Eurofins Discovery (DiscoverX KINOMEscan scanMAX)
Protocol: as §1

HIPK3 = target: T16, HIPK3 (Homo sapiens, UniProt Q9H422)
T16 construct: purchased Eurofins Discovery (DiscoverX KINOMEscan scanMAX)
Protocol: as §1

ICK = target: T17, ICK (Homo sapiens, UniProt Q9UPZ9)
T17 construct: purchased Eurofins Discovery (DiscoverX KINOMEscan scanMAX)
Protocol: as §1

LKB1 = target: T18, LKB1 (Homo sapiens, UniProt Q15831)
T18 construct: purchased Eurofins Discovery (DiscoverX KINOMEscan scanMAX)
Protocol: as §1

LRRK2 = target: T19, LRRK2 (Homo sapiens, UniProt Q5S007)
T19 construct: purchased Eurofins Discovery (DiscoverX KINOMEscan scanMAX)
Protocol: as §1

LYN = target: T20, LYN (Homo sapiens, UniProt P07948)
T20 construct: purchased Eurofins Discovery (DiscoverX KINOMEscan scanMAX)
Protocol: as §1

MAK = target: T21, MAK (Homo sapiens, UniProt P20794)
T21 construct: purchased Eurofins Discovery (DiscoverX KINOMEscan scanMAX)
Protocol: as §1

MKNK2 = target: T22, MKNK2 (Homo sapiens, UniProt Q9HBH9)
T22 construct: purchased Eurofins Discovery (DiscoverX KINOMEscan scanMAX)
Protocol: as §1

NEK1 = target: T23, NEK1 (Homo sapiens, UniProt Q96PY6)
T23 construct: purchased Eurofins Discovery (DiscoverX KINOMEscan scanMAX)
Protocol: as §1

OSR1 = target: T24, OSR1 (Homo sapiens, UniProt O95747)
T24 construct: purchased Eurofins Discovery (DiscoverX KINOMEscan scanMAX)
Protocol: as §1

PIM2 = target: T25, PIM2 (Homo sapiens, UniProt Q9P1W9)
T25 construct: purchased Eurofins Discovery (DiscoverX KINOMEscan scanMAX)
Protocol: as §1

PLK1 = target: T26, PLK1 (Homo sapiens, UniProt P53350)
T26 construct: purchased Eurofins Discovery (DiscoverX KINOMEscan scanMAX)
Protocol: as §1

PLK4 = target: T27, PLK4 (Homo sapiens, UniProt O00444)
T27 construct: purchased Eurofins Discovery (DiscoverX KINOMEscan scanMAX)
Protocol: as §1

PRKCI = target: T28, PRKCI (Homo sapiens, UniProt P41743)
T28 construct: purchased Eurofins Discovery (DiscoverX KINOMEscan scanMAX)
Protocol: as §1

[3] = target: T29, RSK3(Kin.Dom.1-N-terminal) (Homo sapiens, UniProt Q15349)
T29 construct: RSK3(Kin.Dom.1-N-terminal); purchased Eurofins Discovery (DiscoverX KINOMEscan scanMAX)
Protocol: as §1

SGK = target: T30, SGK (Homo sapiens, UniProt O00141)
T30 construct: purchased Eurofins Discovery (DiscoverX KINOMEscan scanMAX)
Protocol: as §1

SIK2 = target: T31, SIK2 (Homo sapiens, UniProt Q9H0K1)
T31 construct: purchased Eurofins Discovery (DiscoverX KINOMEscan scanMAX)
Protocol: as §1

TESK1 = target: T32, TESK1 (Homo sapiens, UniProt Q15569)
T32 construct: purchased Eurofins Discovery (DiscoverX KINOMEscan scanMAX)
Protocol: as §1

TLK2 = target: T33, TLK2 (Homo sapiens, UniProt Q86UE8)
T33 construct: purchased Eurofins Discovery (DiscoverX KINOMEscan scanMAX)
Protocol: as §1

YANK1 = target: T34, YANK1 (Homo sapiens, UniProt Q8WU08)
T34 construct: purchased Eurofins Discovery (DiscoverX KINOMEscan scanMAX)
Protocol: as §1

T3 sequence (Q9UM73 19-1620): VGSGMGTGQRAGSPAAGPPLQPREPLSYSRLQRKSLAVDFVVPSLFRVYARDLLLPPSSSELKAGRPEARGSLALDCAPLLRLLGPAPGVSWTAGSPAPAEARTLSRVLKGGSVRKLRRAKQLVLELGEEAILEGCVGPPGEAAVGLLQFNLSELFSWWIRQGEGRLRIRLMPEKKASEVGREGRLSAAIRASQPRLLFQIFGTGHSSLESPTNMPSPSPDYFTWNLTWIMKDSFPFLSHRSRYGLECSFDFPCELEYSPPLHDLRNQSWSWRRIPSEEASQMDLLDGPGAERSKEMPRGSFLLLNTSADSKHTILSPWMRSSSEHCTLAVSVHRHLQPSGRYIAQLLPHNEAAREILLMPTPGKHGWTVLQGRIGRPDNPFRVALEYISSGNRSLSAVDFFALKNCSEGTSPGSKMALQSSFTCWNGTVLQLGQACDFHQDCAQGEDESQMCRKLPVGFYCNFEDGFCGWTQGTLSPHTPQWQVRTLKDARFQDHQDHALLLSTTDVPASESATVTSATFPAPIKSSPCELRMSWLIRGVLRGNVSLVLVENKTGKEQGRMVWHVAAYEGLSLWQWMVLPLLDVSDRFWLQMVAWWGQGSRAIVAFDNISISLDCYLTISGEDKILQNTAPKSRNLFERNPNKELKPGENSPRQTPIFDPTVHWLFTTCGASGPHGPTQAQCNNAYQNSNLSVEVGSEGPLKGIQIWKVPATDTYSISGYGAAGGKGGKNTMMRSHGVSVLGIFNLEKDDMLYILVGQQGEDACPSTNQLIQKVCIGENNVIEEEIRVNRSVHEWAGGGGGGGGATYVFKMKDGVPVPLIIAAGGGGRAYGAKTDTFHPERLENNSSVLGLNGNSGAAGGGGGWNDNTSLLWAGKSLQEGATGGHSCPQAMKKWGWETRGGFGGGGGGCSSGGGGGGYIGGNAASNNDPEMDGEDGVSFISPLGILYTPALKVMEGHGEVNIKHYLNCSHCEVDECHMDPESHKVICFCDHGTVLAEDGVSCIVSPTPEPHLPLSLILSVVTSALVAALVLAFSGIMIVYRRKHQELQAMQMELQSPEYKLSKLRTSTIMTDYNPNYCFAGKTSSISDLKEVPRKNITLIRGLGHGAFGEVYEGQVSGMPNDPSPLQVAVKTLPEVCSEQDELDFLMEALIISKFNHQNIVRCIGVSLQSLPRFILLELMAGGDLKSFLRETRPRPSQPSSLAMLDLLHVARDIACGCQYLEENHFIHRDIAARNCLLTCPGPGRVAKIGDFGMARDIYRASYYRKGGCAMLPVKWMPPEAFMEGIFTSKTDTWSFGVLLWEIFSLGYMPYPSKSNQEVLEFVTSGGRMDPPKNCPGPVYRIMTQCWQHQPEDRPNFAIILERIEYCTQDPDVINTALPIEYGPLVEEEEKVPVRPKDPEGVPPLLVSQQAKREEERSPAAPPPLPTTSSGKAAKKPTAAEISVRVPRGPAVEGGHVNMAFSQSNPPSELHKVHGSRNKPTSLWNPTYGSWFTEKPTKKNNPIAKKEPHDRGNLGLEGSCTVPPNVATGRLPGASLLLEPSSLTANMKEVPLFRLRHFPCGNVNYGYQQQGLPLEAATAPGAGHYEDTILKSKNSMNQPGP
T10 sequence (Q92630 whole entry): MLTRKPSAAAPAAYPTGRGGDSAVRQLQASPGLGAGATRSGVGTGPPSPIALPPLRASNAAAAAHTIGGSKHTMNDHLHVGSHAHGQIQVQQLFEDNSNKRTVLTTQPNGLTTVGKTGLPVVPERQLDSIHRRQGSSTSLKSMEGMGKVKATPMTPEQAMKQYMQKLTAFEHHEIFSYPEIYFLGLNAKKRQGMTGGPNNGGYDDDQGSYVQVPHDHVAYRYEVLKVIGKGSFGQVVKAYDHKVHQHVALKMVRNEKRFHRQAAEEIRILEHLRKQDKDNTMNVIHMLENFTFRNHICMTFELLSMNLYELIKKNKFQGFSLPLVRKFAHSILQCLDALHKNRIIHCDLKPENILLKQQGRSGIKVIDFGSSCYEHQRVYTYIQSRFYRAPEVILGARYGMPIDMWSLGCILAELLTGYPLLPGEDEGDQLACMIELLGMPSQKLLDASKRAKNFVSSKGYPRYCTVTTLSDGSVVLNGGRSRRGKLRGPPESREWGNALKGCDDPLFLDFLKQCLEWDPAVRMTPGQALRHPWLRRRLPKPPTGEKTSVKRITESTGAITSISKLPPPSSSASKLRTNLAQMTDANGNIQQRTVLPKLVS
T7 sequence (P11802 whole entry): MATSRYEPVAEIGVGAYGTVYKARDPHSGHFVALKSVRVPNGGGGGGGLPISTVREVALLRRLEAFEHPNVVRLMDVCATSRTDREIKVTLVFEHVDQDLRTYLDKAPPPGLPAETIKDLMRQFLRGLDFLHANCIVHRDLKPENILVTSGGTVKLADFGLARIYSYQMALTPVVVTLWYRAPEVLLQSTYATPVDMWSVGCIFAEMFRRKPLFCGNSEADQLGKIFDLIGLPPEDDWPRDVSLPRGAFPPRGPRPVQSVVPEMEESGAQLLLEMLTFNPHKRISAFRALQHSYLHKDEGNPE
T7 sequence (P24385 whole entry partner): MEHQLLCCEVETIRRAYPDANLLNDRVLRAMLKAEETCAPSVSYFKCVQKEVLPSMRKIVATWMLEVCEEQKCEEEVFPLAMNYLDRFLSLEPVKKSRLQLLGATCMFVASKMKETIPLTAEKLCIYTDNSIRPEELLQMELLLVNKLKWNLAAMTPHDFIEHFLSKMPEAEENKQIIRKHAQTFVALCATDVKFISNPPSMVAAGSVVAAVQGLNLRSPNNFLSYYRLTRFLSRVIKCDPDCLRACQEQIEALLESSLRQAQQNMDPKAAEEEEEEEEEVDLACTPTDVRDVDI
T6 sequence (P11802 whole entry): as the sequence (P11802 whole entry) above
T32 sequence (Q15569 whole entry): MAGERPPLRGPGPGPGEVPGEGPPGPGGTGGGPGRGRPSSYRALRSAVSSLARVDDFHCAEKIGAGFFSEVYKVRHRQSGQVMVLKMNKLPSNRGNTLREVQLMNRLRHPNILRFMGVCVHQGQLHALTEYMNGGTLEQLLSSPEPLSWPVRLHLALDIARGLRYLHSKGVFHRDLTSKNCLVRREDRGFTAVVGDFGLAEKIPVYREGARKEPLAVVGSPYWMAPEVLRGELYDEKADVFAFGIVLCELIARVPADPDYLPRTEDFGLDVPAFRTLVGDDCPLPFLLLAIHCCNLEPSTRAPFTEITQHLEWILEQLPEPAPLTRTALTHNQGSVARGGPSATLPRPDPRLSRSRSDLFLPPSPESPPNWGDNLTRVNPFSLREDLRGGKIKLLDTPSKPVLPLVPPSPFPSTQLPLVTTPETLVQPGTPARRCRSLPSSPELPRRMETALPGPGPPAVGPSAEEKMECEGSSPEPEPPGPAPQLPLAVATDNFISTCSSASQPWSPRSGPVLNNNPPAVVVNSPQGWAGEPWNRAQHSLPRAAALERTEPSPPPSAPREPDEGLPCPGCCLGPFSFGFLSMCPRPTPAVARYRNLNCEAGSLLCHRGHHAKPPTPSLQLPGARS
T12 sequence (P21860 20-1342): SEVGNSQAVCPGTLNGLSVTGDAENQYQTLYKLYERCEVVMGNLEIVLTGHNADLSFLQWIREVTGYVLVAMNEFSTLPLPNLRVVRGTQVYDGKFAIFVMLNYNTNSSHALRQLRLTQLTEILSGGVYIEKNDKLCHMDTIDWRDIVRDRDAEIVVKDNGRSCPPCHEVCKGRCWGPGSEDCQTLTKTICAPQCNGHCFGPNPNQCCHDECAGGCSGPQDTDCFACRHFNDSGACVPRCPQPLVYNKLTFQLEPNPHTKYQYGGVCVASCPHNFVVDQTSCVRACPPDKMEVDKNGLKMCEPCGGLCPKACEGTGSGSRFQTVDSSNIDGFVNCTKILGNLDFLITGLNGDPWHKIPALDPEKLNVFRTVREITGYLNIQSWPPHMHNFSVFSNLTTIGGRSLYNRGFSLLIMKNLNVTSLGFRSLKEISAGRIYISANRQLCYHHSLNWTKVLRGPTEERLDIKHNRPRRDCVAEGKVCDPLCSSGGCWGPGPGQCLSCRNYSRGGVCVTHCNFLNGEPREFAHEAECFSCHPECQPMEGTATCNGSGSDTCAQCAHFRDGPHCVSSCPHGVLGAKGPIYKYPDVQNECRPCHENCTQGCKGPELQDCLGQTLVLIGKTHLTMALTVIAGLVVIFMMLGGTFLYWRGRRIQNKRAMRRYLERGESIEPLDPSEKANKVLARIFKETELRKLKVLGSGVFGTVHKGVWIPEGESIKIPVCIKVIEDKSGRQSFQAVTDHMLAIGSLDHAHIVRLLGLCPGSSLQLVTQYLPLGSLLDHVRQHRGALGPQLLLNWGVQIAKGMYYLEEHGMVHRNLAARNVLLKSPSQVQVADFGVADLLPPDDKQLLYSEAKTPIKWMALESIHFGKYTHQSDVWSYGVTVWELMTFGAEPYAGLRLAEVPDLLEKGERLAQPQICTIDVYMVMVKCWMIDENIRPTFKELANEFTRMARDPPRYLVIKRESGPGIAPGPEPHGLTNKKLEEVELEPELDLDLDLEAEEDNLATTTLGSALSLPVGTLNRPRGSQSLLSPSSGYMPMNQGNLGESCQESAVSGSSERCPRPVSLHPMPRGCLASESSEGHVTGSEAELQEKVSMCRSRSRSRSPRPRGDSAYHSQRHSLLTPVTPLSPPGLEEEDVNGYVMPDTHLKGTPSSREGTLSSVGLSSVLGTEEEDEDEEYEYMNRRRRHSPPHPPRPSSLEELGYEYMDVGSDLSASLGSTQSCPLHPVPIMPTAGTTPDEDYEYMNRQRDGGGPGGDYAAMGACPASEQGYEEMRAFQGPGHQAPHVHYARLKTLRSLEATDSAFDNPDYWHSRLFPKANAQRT

## Cc1cc(Nc2ccc(F)c(CC3(C(=O)N4CCC(F)(CN5CCN(c6ccc(N7CCC(=O)NC7=O)cn6)CC5)CC4)CCN(Cc4cccc(Cl)c4F)CC3)n2)n[nH]1 [SK5527]
[1]; 100 nM
  remaining binding at 0.1 µM: 84%
[1]; 1000 nM
  remaining binding at 1 µM: 74%
[2]; 100 nM
  remaining binding at 0.1 µM: 24%
[2]; 1000 nM
  remaining binding at 1 µM: 0%
ALK; 100 nM
  remaining binding at 0.1 µM: 73%
ALK; 1000 nM
  remaining binding at 1 µM: 62%
BRSK1; 100 nM
  remaining binding at 0.1 µM: 100%
BRSK1; 1000 nM
  remaining binding at 1 µM: 98%
CAMK2D; 100 nM
  remaining binding at 0.1 µM: 95%
CAMK2D; 1000 nM
  remaining binding at 1 µM: 93%
CDK4; 100 nM
  remaining binding at 0.1 µM: 72%
CDK4; 1000 nM
  remaining binding at 1 µM: 90%
CDK4-cyclinD1; 100 nM
  remaining binding at 0.1 µM: 100%
CDK4-cyclinD1; 1000 nM
  remaining binding at 1 µM: 87%
CSNK1D; 100 nM
  remaining binding at 0.1 µM: 98%
CSNK1D; 1000 nM
  remaining binding at 1 µM: 91%
CSNK2A2; 100 nM
  remaining binding at 0.1 µM: 100%
CSNK2A2; 1000 nM
  remaining binding at 1 µM: 100%
DYRK2; 100 nM
  remaining binding at 0.1 µM: 100%
DYRK2; 1000 nM
  remaining binding at 1 µM: 80%
EPHA5; 100 nM
  remaining binding at 0.1 µM: 100%
EPHA5; 1000 nM
  remaining binding at 1 µM: 93%
ERBB3; 100 nM
  remaining binding at 0.1 µM: 100%
ERBB3; 1000 nM
  remaining binding at 1 µM: 100%
FGFR4; 100 nM
  remaining binding at 0.1 µM: 89%
FGFR4; 1000 nM
  remaining binding at 1 µM: 89%
FLT3(D835V); 100 nM
  remaining binding at 0.1 µM: 100%
FLT3(D835V); 1000 nM
  remaining binding at 1 µM: 41%
FRK; 100 nM
  remaining binding at 0.1 µM: 100%
FRK; 1000 nM
  remaining binding at 1 µM: 96%
HIPK3; 100 nM
  remaining binding at 0.1 µM: 100%
HIPK3; 1000 nM
  remaining binding at 1 µM: 66%
ICK; 100 nM
  remaining binding at 0.1 µM: 92%
ICK; 1000 nM
  remaining binding at 1 µM: 48%
LKB1; 100 nM
  remaining binding at 0.1 µM: 82%
LKB1; 1000 nM
  remaining binding at 1 µM: 83%
LRRK2; 100 nM
  remaining binding at 0.1 µM: 100%
LRRK2; 1000 nM
  remaining binding at 1 µM: 94%
LYN; 100 nM
  remaining binding at 0.1 µM: 78%
LYN; 1000 nM
  remaining binding at 1 µM: 94%
MAK; 100 nM
  remaining binding at 0.1 µM: 100%
MAK; 1000 nM
  remaining binding at 1 µM: 100%
MKNK2; 100 nM
  remaining binding at 0.1 µM: 59%
MKNK2; 1000 nM
  remaining binding at 1 µM: 68%
NEK1; 100 nM
  remaining binding at 0.1 µM: 100%
NEK1; 1000 nM
  remaining binding at 1 µM: 86%
OSR1; 100 nM
  remaining binding at 0.1 µM: 100%
OSR1; 1000 nM
  remaining binding at 1 µM: 97%
PIM2; 100 nM
  remaining binding at 0.1 µM: 60%
PIM2; 1000 nM
  remaining binding at 1 µM: 71%
PLK1; 100 nM
  remaining binding at 0.1 µM: 58%
PLK1; 1000 nM
  remaining binding at 1 µM: 82%
PLK4; 100 nM
  remaining binding at 0.1 µM: 76%
PLK4; 1000 nM
  remaining binding at 1 µM: 29%
PRKCI; 100 nM
  remaining binding at 0.1 µM: 92%
PRKCI; 1000 nM
  remaining binding at 1 µM: 76%
[3]; 100 nM
  remaining binding at 0.1 µM: 100%
[3]; 1000 nM
  remaining binding at 1 µM: 96%
SGK; 100 nM
  remaining binding at 0.1 µM: 93%
SGK; 1000 nM
  remaining binding at 1 µM: 68%
SIK2; 100 nM
  remaining binding at 0.1 µM: 100%
SIK2; 1000 nM
  remaining binding at 1 µM: 93%
TESK1; 100 nM
  remaining binding at 0.1 µM: 66%
TESK1; 1000 nM
  remaining binding at 1 µM: 83%
TLK2; 100 nM
  remaining binding at 0.1 µM: 100%
TLK2; 1000 nM
  remaining binding at 1 µM: 94%
YANK1; 100 nM
  remaining binding at 0.1 µM: 100%
YANK1; 1000 nM
  remaining binding at 1 µM: 77%
